Measured values as given in paper PMC7031696 (Cell chemical biology, 2019).
Where two headings read alike, the source gives them in different places.

Experiments:
[1] = tested on: Plasmodium falciparum 3D7-A10 parasites; test: Stage specificity assay (8-h exposure of synchronized stages, IC50^8h); type: cell-based; details: for IC50: Plasmodium falciparum
[2] = tested on: 3D7-MR4 trophozoite parasite-infected RBCs; details: 10 × IC50^72h; ref Allman et al., 2016; cited from earlier work
[3] = tested on: 3D7-MR4 trophozoite parasite-infected RBCs; test: Metabolomic profiling (hydrophilic metabolite changes, UHPLC-MS); type: cell-based, Plasmodium falciparum
[4] = tested on: asynchronous 3D7-A10 parasite cultures; test: Standard 72-h exposure asexual blood stage susceptibility assay (IC50^72h); type: cell-based, Plasmodium falciparum; details: Plasmodium falciparum, 3D7, 72 h, read-out: Overall (72hr assay) Mean IC50 (IC50^72h)

## C[C@H]1Cc2c([nH]c3cc(Cl)c(F)cc23)[C@@]2(N1)C(=O)Nc1ccc(Cl)cc12 [KAE609, reference compound]
[1]; 3D7-A10
  Ratio lowest IC50 8hr/IC50 72hr: 1.5
[1]; 8-h exposures
  overall activity profile (stages on which active): inactive against rings yet active against early trophozoites and later stages
[1]; 3D7, read-out: Early rings IC50 (IC50^8h)
  IC50: > 1250 nM
[1]; 3D7, read-out: Early trophozoites Mean IC50 (IC50^8h)
  IC50: 3.2 nM
[1]; 3D7, read-out: Late rings IC50 (IC50^8h)
  IC50: > 1250 nM
[1]; 3D7, read-out: Late trophozoites Mean IC50 (IC50^8h)
  IC50: 1.1 nM
[1]; 3D7, read-out: Schizonts Mean IC50 (IC50^8h)
  IC50: 1.2 nM
[2]
  levels of cAMP: decreased
  levels of the deoxyribonucleotides dAMP and dTMP: increased
  nucleoside di- and tri-phosphate levels (GDP, UDP, GTP, dATP, dGTP/ATP, dUTP): decreased
  peptide levels (hemoglobin catabolism signature): decreased peptide levels
[3]; metabolite 3-phosphoglycerate, log2 fold change
  Log2(fold changes) 3-phosphoglycerate: 0.0100
[3]; metabolite 4-Pyridoxic acid, log2 fold change
  Log2(fold changes) 4-Pyridoxic acid: -0.6000
[3]; metabolite 4-aminobutyrate, log2 fold change
  Log2(fold changes) 4-aminobutyrate: -0.5400
[3]; metabolite 4-phosphopantetheine, log2 fold change
  Log2(fold changes) 4-phosphopantetheine: 0.0000
[3]; metabolite 4-phosphopantothenate, log2 fold change
  Log2(fold changes) 4-phosphopantothenate: -0.1500
[3]; metabolite 5-aminopentanoic acid, log2 fold change
  Log2(fold changes) 5-aminopentanoic acid: 0.0000
[3]; metabolite 5-methyl-THF, log2 fold change
  Log2(fold changes) 5-methyl-THF: 0.0000
[3]; metabolite 5-phosphoribosyl-1-pyrophosphate, log2 fold change
  Log2(fold changes) 5-phosphoribosyl-1-pyrophosphate: -2.9800
[3]; metabolite 6-phospho-D-gluconate, log2 fold change
  Log2(fold changes) 6-phospho-D-gluconate: -0.2800
[3]; metabolite HVDD
  Log2(fold change) HVDD: 0.0000
[3]; metabolite Hydroxyisocaproic acid
  Log2(fold change) Hydroxyisocaproic acid: 0.0000
[3]; metabolite IDP
  Log2(fold change) IDP: 0.0000
[3]; metabolite IMP
  Log2(fold change) IMP: 0.3800
[3]; metabolite Inositol
  Log2(fold change) Inositol: 0.0000
[3]; metabolite Isopentyl-PP
  Log2(fold change) Isopentyl-PP: 0.0000
[3]; metabolite L-arginino-succinate
  Log2(fold change) L-arginino-succinate: 0.0000
[3]; metabolite LD
  Log2(fold change) LD: -1.3200
[3]; metabolite Myristoyl/tetradecanoyl-CoA
  Log2(fold change) Myristoyl/tetradecanoyl-CoA: 0.0000
[3]; metabolite N-Acetyl-L-alanine
  Log2(fold change) N-Acetyl-L-alanine: -1.4200
[3]; metabolite N-acetyl-L-ornithine
  Log2(fold change) N-acetyl-L-ornithine: -1.2700
[3]; metabolite N-acetyl-glucosamine-1/6-phosphate
  Log2(fold change) N-acetyl-glucosamine-1/6-phosphate: -0.2300
[3]; metabolite N-acetyl-glutamate
  Log2(fold change) N-acetyl-glutamate: -0.2700
[3]; metabolite N-acetyl-glutamine
  Log2(fold change) N-acetyl-glutamine: -0.4300
[3]; metabolite N-carbamoyl-L-aspartate
  Log2(fold change) N-carbamoyl-L-aspartate: -4.5700
[3]; metabolite NAD+
  Log2(fold change) NAD+: -0.4000
[3]; metabolite NADH
  Log2(fold change) NADH: 0.0300
[3]; metabolite NADP+
  Log2(fold change) NADP+: -0.1200
[3]; metabolite NADPH
  Log2(fold change) NADPH: 0.3500
[3]; metabolite O-acetyl-L-serine
  Log2(fold change) O-acetyl-L-serine: 0.0000
[3]; metabolite Octoluse 8/1P
  Log2(fold change) Octoluse 8/1P: -0.7200
[3]; metabolite Octoluse Bisphosphate
  Log2(fold change) Octoluse Bisphosphate: -1.2000
[3]; metabolite PD
  Log2(fold change) PD: -1.2400
[3]; metabolite PE
  Log2(fold change) PE: -3.4900
[3]; metabolite PEE
  Log2(fold change) PEE: -5.3200
[3]; metabolite PEEK
  Log2(fold change) PEEK: -1.5400
[3]; metabolite PVNF
  Log2(fold change) PVNF: -2.0700
[3]; metabolite Pyroglutamic acid
  Log2(fold change) Pyroglutamic acid: -0.0600
[3]; metabolite Pyrophosphate
  Log2(fold change) Pyrophosphate: -3.3800
[3]; metabolite Ribose-5-phosphate
  Log2(fold change) Ribose-5-phosphate: 0.0000
[3]; metabolite S-adenosyl-L-homocysteine
  Log2(fold change) S-adenosyl-L-homocysteine: -1.6400
[3]; metabolite S-adenosyl-L-methioninamine
  Log2(fold change) S-adenosyl-L-methioninamine: 0.0000
[3]; metabolite S-adenosyl-L-methionine
  Log2(fold change) S-adenosyl-L-methionine: 0.0000
[3]; metabolite S-methyl-5'-thioadenosine
  Log2(fold change) S-methyl-5'-thioadenosine: -0.5300
[3]; metabolite SD
  Log2(fold change) SD: -3.7000
[3]; metabolite SDL
  Log2(fold change) SDL: 0.0000
[3]; metabolite SID
  Log2(fold change) SID: 0.0000
[3]; metabolite Sedoheptulose bisphosphate
  Log2(fold change) Sedoheptulose bisphosphate: -1.3400
[3]; metabolite Thiamine pyrophosphate
  Log2(fold change) Thiamine pyrophosphate: 0.0000
[3]; metabolite UDP-D-glucose, log2 fold change
  Log2(fold changes) UDP-D-glucose: -0.2000
[3]; metabolite UDP-D-glucuronate, log2 fold change
  Log2(fold changes) UDP-D-glucuronate: -0.3600
[3]; metabolite UDP-N-acetyl-glucosamine, log2 fold change
  Log2(fold changes) UDP-N-acetyl-glucosamine: 0.0300
[3]; metabolite UDP, log2 fold change
  Log2(fold changes) UDP: -0.9600
[3]; metabolite UMP, log2 fold change
  Log2(fold changes) UMP: -0.3800
[3]; metabolite UTP, log2 fold change
  Log2(fold changes) UTP: -2.0500
[3]; metabolite hydroxyphenylpyruvate
  Log2(fold change) hydroxyphenylpyruvate: 0.0000
[3]; metabolite hydroxyproline/Aminolevulinate
  Log2(fold change) hydroxyproline/Aminolevulinate: 0.0000
[3]; metabolite hypoxanthine
  Log2(fold change) hypoxanthine: 0.2700
[3]; metabolite indole
  Log2(fold change) indole: 0.1700
[3]; metabolite inosine
  Log2(fold change) inosine: 0.1600
[3]; metabolite isoleucine
  Log2(fold change) isoleucine: 0.0000
[3]; metabolite lactate
  Log2(fold change) lactate: -1.3100
[3]; metabolite leucine
  Log2(fold change) leucine: 0.0000
[3]; metabolite lysine
  Log2(fold change) lysine: 0.0000
[3]; metabolite malate
  Log2(fold change) malate: -0.0600
[3]; metabolite maleic acid
  Log2(fold change) maleic acid: 0.0000
[3]; metabolite methionine
  Log2(fold change) methionine: 0.0000
[3]; metabolite myo-inositol
  Log2(fold change) myo-inositol: -3.2700
[3]; metabolite nicotinamide mononucleotide
  Log2(fold change) nicotinamide mononucleotide: 0.0000
[3]; metabolite nicotinate
  Log2(fold change) nicotinate: 0.7800
[3]; metabolite ornithine
  Log2(fold change) ornithine: -0.1500
[3]; metabolite orotate
  Log2(fold change) orotate: 0.9100
[3]; metabolite orotidine-5'-phosphate
  Log2(fold change) orotidine-5'-phosphate: 0.0000
[3]; metabolite oxaloacetate
  Log2(fold change) oxaloacetate: 0.0000
[3]; metabolite p-aminobenzoate
  Log2(fold change) p-aminobenzoate: 0.0000
[3]; metabolite p-hydroxybenzoate
  Log2(fold change) p-hydroxybenzoate: 0.5800
[3]; metabolite pantothenate
  Log2(fold change) pantothenate: 0.0000
[3]; metabolite phenylalanine
  Log2(fold change) phenylalanine: 0.0000
[3]; metabolite phenylpyruvate
  Log2(fold change) phenylpyruvate: -0.7100
[3]; metabolite phosphoenolpyruvate
  Log2(fold change) phosphoenolpyruvate: 0.4500
[3]; metabolite prephenate
  Log2(fold change) prephenate: 0.0000
[3]; metabolite proline
  Log2(fold change) proline: 0.0000
[3]; metabolite pyridoxine
  Log2(fold change) pyridoxine: 0.0000
[3]; metabolite pyruvate
  Log2(fold change) pyruvate: -1.3400
[3]; metabolite riboflavin
  Log2(fold change) riboflavin: 0.0000
[3]; metabolite ribose
  Log2(fold change) ribose: 0.0000
[3]; metabolite ribose-phosphate
  Log2(fold change) ribose-phosphate: -0.5600
[3]; metabolite ribulose-5-phosphate
  Log2(fold change) ribulose-5-phosphate: 0.0000
[3]; metabolite serine
  Log2(fold change) serine: 0.0000
[3]; metabolite sn-glycerol-3-phosphate
  Log2(fold change) sn-glycerol-3-phosphate: 0.6100
[3]; metabolite succinate/Methylmalonic acid
  Log2(fold change) succinate/Methylmalonic acid: 0.1400
[3]; metabolite succinyl-CoA/methylmalonyl-CoA
  Log2(fold change) succinyl-CoA/methylmalonyl-CoA: 0.0000
[3]; metabolite taurine
  Log2(fold change) taurine: 0.0000
[3]; metabolite thiamine
  Log2(fold change) thiamine: 0.0000
[3]; metabolite threonine/homoserine
  Log2(fold change) threonine/homoserine: 0.0000
[3]; metabolite thymidine
  Log2(fold change) thymidine: 0.7900
[3]; metabolite thymine, log2 fold change
  Log2(fold changes) thymine: -0.5500
[3]; metabolite trehalose-6-Phosphate, log2 fold change
  Log2(fold changes) trehalose-6-Phosphate: 0.0000
[3]; metabolite tryptophan, log2 fold change
  Log2(fold changes) tryptophan: 0.0000
[3]; metabolite tyrosine, log2 fold change
  Log2(fold changes) tyrosine: 0.0000
[3]; metabolite uridine, log2 fold change
  Log2(fold changes) uridine: -0.4400
[4]
  IC50: 0.73 nM
